Results published in PubChem BioAssay AID2060616 (Molecular Pharmacology Branch, DTP, NCI, 2025).

Tested on: 377384-186-R-J1-PDC complex spheroid viability
Test: Anticancer human tumor 377384-186-R-J1-PDC patient-derived pancreatic carcinoma cell line growth inhibition [CLK]
Settings: for IC50: curve of first compound; for viability, T/C: stronger effect = lower value
In short: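 Multi-cell-type spheroids combined patient-derived tumor cells with HUVEC endothelial cells and human mesenchymal stem cells. Paired agents were dosed in half-log steps down from about clinical Cmax, or from 10 microM where Cmax was unknown.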

[1] = second compound 0.0316 µM, first compound 0.0316 µM
[2] = second compound 0.0316 µM, first compound 0.1 µM
[3] = second compound 0.0316 µM, first compound 0.316 µM
[4] = second compound 0.0316 µM, first compound 1 µM
[5] = second compound 0.0316 µM, first compound 3.16 µM
[6] = second compound 0.0316 µM, first compound 10 µM
[7] = second compound 0.1 µM, first compound 0.0316 µM
[8] = second compound 0.1 µM, first compound 0.1 µM
[9] = second compound 0.1 µM, first compound 0.316 µM
[10] = second compound 0.1 µM, first compound 1 µM
[11] = second compound 0.1 µM, first compound 3.16 µM
[12] = second compound 0.1 µM, first compound 10 µM
[13] = second compound 0.316 µM, first compound 0.0316 µM
[14] = second compound 0.316 µM, first compound 0.1 µM
[15] = second compound 0.316 µM, first compound 0.316 µM
[16] = second compound 0.316 µM, first compound 1 µM
[17] = second compound 0.316 µM, first compound 3.16 µM
[18] = second compound 0.316 µM, first compound 10 µM
[19] = second compound 1 µM, first compound 0.0316 µM
[20] = second compound 1 µM, first compound 0.1 µM
[21] = second compound 1 µM, first compound 0.316 µM
[22] = second compound 1 µM, first compound 1 µM
[23] = second compound 1 µM, first compound 3.16 µM
[24] = second compound 1 µM, first compound 10 µM
[25] = second compound 3.16 µM, first compound 0.0316 µM
[26] = second compound 3.16 µM, first compound 0.1 µM
[27] = second compound 3.16 µM, first compound 0.316 µM
[28] = second compound 3.16 µM, first compound 1 µM
[29] = second compound 3.16 µM, first compound 3.16 µM
[30] = second compound 3.16 µM, first compound 10 µM
[31] = second compound 10 µM, first compound 0.0316 µM
[32] = second compound 10 µM, first compound 0.1 µM
[33] = second compound 10 µM, first compound 0.316 µM
[34] = second compound 10 µM, first compound 1 µM
[35] = second compound 10 µM, first compound 3.16 µM
[36] = second compound 10 µM, first compound 10 µM
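Further: spheroids exposed to agents for 7 days before reading.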
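Wherever viability, T/C is given: luminescence signal used as a stand-in for viable cells.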

## CCCS(=O)(=O)Nc1ccc(F)c(C(=O)c2c[nH]c3ncc(-c4ccc(Cl)cc4)cc23)c1F + CNC(=O)c1ccc(Nc2nc(OC3CCCC3)c3c(-c4ccc5nc(C)oc5c4)c[nH]c3n2)c(OC)c1
Second compound 0.0316 µM
  IC50: > 10000 nM
Second compound 0.1 µM
  IC50: 1620 nM
Second compound 0.316 µM
  IC50: < 31.6 nM
Second compound 1 µM
  IC50: < 31.6 nM
Second compound 3.16 µM
  IC50: < 31.6 nM
Second compound 10 µM
  IC50: < 31.6 nM
[1]
  viability, T/C: 103%
[2]
  viability, T/C: 118%
[3]
  viability, T/C: 115%
[4]
  viability, T/C: 123%
[5]
  viability, T/C: 107%
[6]
  viability, T/C: 52.5%
[7]
  viability, T/C: 65.1%
[8]
  viability, T/C: 70%
[9]
  viability, T/C: 49.1%
[10]
  viability, T/C: 59.7%
[11]
  viability, T/C: 44%
[12]
  viability, T/C: 37.2%
[13]
  viability, T/C: 19.9%
[14]
  viability, T/C: 22.5%
[15]
  viability, T/C: 23.6%
[16]
  viability, T/C: 22.6%
[17]
  viability, T/C: 32.6%
[18]
  viability, T/C: 24.3%
[19]
  viability, T/C: 18.9%
[20]
  viability, T/C: 20.6%
[21]
  viability, T/C: 23.6%
[22]
  viability, T/C: 27%
[23]
  viability, T/C: 30.7%
[24]
  viability, T/C: 24.8%
[25]
  viability, T/C: 19.8%
[26]
  viability, T/C: 25.4%
[27]
  viability, T/C: 23.9%
[28]
  viability, T/C: 28%
[29]
  viability, T/C: 29%
[30]
  viability, T/C: 23.4%
[31]
  viability, T/C: 21.5%
[32]
  viability, T/C: 23.3%
[33]
  viability, T/C: 26.8%
[34]
  viability, T/C: 29.1%
[35]
  viability, T/C: 31.1%
[36]
  viability, T/C: 29%

## COC1C=CCC(C)C(C)S(=O)(=O)NC(=O)c2ccc3c(c2)N(CC2CCC21)CC1(CCCc2cc(Cl)ccc21)CO3 (centres undefined) + CNC(=O)c1ccc(Nc2nc(OC3CCCC3)c3c(-c4ccc5nc(C)oc5c4)c[nH]c3n2)c(OC)c1
Second compound 0.0316 µM
  IC50: 5940 nM
Second compound 0.1 µM
  IC50: 4470 nM
Second compound 0.316 µM
  IC50: < 31.6 nM
Second compound 1 µM
  IC50: < 31.6 nM
Second compound 3.16 µM
  IC50: < 31.6 nM
Second compound 10 µM
  IC50: < 31.6 nM
[1]
  viability, T/C: 100%
[2]
  viability, T/C: 99.6%
[3]
  viability, T/C: 97.8%
[4]
  viability, T/C: 92.9%
[5]
  viability, T/C: 84.2%
[6]
  viability, T/C: 22.4%
[7]
  viability, T/C: 57.9%
[8]
  viability, T/C: 61.9%
[9]
  viability, T/C: 56%
[10]
  viability, T/C: 68.4%
[11]
  viability, T/C: 60%
[12]
  viability, T/C: 26.2%
[13]
  viability, T/C: 19.9%
[14]
  viability, T/C: 17.2%
[15]
  viability, T/C: 18.3%
[16]
  viability, T/C: 16.8%
[17]
  viability, T/C: 23%
[18]
  viability, T/C: 19.2%
[19]
  viability, T/C: 19%
[20]
  viability, T/C: 17.6%
[21]
  viability, T/C: 14.9%
[22]
  viability, T/C: 12.4%
[23]
  viability, T/C: 17.8%
[24]
  viability, T/C: 21.9%
[25]
  viability, T/C: 18.9%
[26]
  viability, T/C: 18.9%
[27]
  viability, T/C: 13.4%
[28]
  viability, T/C: 13.9%
[29]
  viability, T/C: 14.6%
[30]
  viability, T/C: 20.8%
[31]
  viability, T/C: 18.5%
[32]
  viability, T/C: 16.6%
[33]
  viability, T/C: 15.1%
[34]
  viability, T/C: 12.4%
[35]
  viability, T/C: 12.3%
[36]
  viability, T/C: 18%
